The text below walks through data of patent US20140128606A1, “ANTIPRURITIC AGENT” (Toray Industries, Inc., priority 2011, published 2014).

Each structure is given as a SMILES string. Structures can show the parent of a compound that is named as a salt. Where two headings read alike, the source gives them in different places.

In general, inhibition refers to the change of the read-out against control, counted positive when it falls.

In experiment [1] the test system is substance P-induced scratching behavior. Particulars: literature; cited from earlier work.
For experiment [2] the test system is unchanged. As to the kind of experiment: Inhibitory effect on substance P-induced scratching behavior in mice (MicroAct automatic detection). It is filed as in vivo, mouse. The conditions noted are these: for Number of scratching behavior (means ± standard error): counted for 15 minutes. From the text: Substance P-induced scratching behavior in mice which is an intractable pruritus model was induced by the method described in a known document (Togashi et al., European Journal of Pharmacology, 2002, Vol. 435, p. 259 and the like). Further, evaluation of the scratching behavior was objectively carried out by automatic detection using MicroAct (NeuroScience, Inc.) based on the method described in a known document (Hashimoto et al., Allergology International, 2004, Vol. 53, p. 349).
More particularly, at least five days before the evaluation of drug effect, neodymium magnets (diameter: 1 mm, length: 3 mm) coated with Parafilm were subcutaneously inserted into the insteps of both hind limbs of 5 to 7 week-old male ICR mouse (Japan SLC, Inc.) under isoflurane anesthesia. One or two days before the day of the evaluation of drug effect, the hair of the rostral part of the back of the mouse was shaved with a hair clipper under isoflurane anesthesia. At least one hour before the start of the measurement of the number of scratching behavior, each mouse (6 to 8 weeks old) was individually placed in a chamber for measurement (diameter: 11 cm, height: 18 cm) for acclimation. After the acclimation, substance P (5 mmol/L) or phosphate-buffered saline (hereinafter referred to as PBS) as a solvent thereof was intradermally administered (0.05 mL/site) into the rostral part of the back, and the measurement of the number of scratching behavior was started immediately after the administration. The number of scratching behavior was recorded by amplifying electric current induced by the movement of the magnets inserted in the hind limbs in a round coil surrounding the chamber for measurement. The measurement was carried out under unattended environment, and the evaluation of the drug effect was carried out by using the number of scratching behavior occurred for 15 minutes after the start of the measurement as an index.
A test compound or a solvent thereof was administered in an amount of 10 mL/kg 30 to 60 minutes before the start of the measurement of the number of scratching behavior. Varenicline tartrate (Tocris Bioscience) was dissolved in PBS and intraperitoneally administered in a dose of 1, 3 or 10 mg/kg 60 minutes before the start of the measurement of the number of scratching behavior. N-(1-azabicyclo[2.2.2]oct-3(R)-yl)-4-chlorobenzamide hydrochloride (PNU-282987) hydrate (Sigma-Aldrich) was dissolved in PBS and intraperitoneally administered in a dose of 0.3 or 1 mg/kg 45 minutes before the start of the measurement of the number of scratching behavior. The compound of Reference Example 1 was dissolved in PBS and intraperitoneally administered in a dose of 0.1 or 0.3 mg/kg 30 minutes before the start of the measurement of the number of scratching behavior. The compound of Reference Example 2 was dissolved in PBS and intraperitoneally administered in a dose of 1, 3, or 10 mg/kg 45 minutes before the start of the measurement of the number of scratching behavior. The compound of Reference Example 3 was dissolved in distilled water and orally administered in a dose of 1, 3, or 10 mg/kg 30 minutes before the start of the measurement of the number of scratching behavior. The compound of Reference Example 4 was dissolved in PBS and intraperitoneally administered in a dose of 1, 3, or 10 mg/kg 45 minutes before the start of the measurement of the number of scratching behavior. The compound of Reference Example 5 was dissolved in PBS and intraperitoneally administered in a dose of 1, 3, or 10 mg/kg 30 minutes before the start of the measurement of the number of scratching behavior. The compound of Reference Example 6 was dissolved in PBS and intraperitoneally administered in a dose of 1, 3, or 10 mg/kg, 30 minutes before the start of the measurement of the number of scratching behavior. […]

Where [3] appears, read: Mus musculus, ip, 1 mg/kg, substance P 250 nmol/site, read-out: Inhibition rate.
Where [4] appears, read: Mus musculus, ip, 3 mg/kg, substance P 250 nmol/site, read-out: Inhibition rate.
Where [5] appears, read: Mus musculus, ip, 10 mg/kg, substance P 250 nmol/site, read-out: Inhibition rate.
Where [6] appears, read: i.p., 1 mg/kg, substance P 250 nmol/site.
Where [7] appears, read: i.p., 3 mg/kg, substance P 250 nmol/site.
Setting [8] is: i.p., 10 mg/kg, substance P 250 nmol/site.
[9] abbreviates: Mus musculus, ip, read-out: Inhibition rate.
Where [10] appears, read: i.p., 0.3 mg/kg, substance P 250 nmol/site.
The mark [11] stands for this setting: Mus musculus, ip, 0.1 mg/kg, substance P 250 nmol/site, read-out: Inhibition rate.
The mark [12] stands for this setting: Mus musculus, ip, 0.3 mg/kg, substance P 250 nmol/site, read-out: Inhibition rate.
[13] abbreviates: i.p., 0.1 mg/kg, substance P 250 nmol/site.
[14] abbreviates: Mus musculus, po, read-out: Inhibition rate.
The mark [15] stands for this setting: p.o., 10 mg/kg, substance P 250 nmol/site.

With `C=CC[C@@H]1/C=C(\C)C[C@H](C)C[C@H](OC)[C@H]2O[C@@](O)(C(=O)C(=O)N3CCCC[C@H]3C(=O)O[C@H](/C(C)=C/[C@@H]3CC[C@@H](O)[C@H](OC)C3)[C@H](C)[C@@H](O)CC1=O)[C@H](C)C[C@@H]2OC` [tacrolimus], in experiment [1], the “Inhibition of substance P-induced scratching behavior in mice (in words)” value is reported as “not inhibited”.
On to `Cc1ccc2oc(N3CCN4CCC3CC4)nc2n1.Cl` [Reference Example 5, 2-(1,4-Diazabicyclo[3.2.2]non-4-yl)-5-methyloxazolo[4,5-b]pyridine hydrochloride], for which the inhibition at 1 mg/kg in experiment [2] (setting [3]) was determined as 25%. Besides, the inhibition at 3 mg/kg in experiment [2] (setting [4]) was 46%. Besides, in experiment [2] (setting [5]), the inhibition at 10 mg/kg was found to be 59%. Further, the “Number of scratching behavior (means ± standard error)” value (“Number … (means ± standard error)” for short) turned out to be 82 ± 6 in experiment [2] (setting [6]), 62 ± 11 in experiment [2] (setting [7]) and 50 ± 12 in experiment [2] (setting [8]).
For `Cl.O=C(N[C@H]1CN2CCC1CC2)c1ccc(Cl)cc1` [PNU-282987 hydrate, N-(1-azabicyclo[2.2.2]oct-3(R)-yl)-4-chlorobenzamide hydrochloride, reference compound], the inhibition at 0.3 mg/kg in experiment [2] (setting [9]) stood at 42%. Moreover, the inhibition at 1 mg/kg in experiment [2] (setting [9]) came to 72%. Besides, the “Number … (means ± standard error)” value in experiment [2] (setting [10]) is 81 ± 9; in experiment [2] (setting [6]), 48 ± 8.
For `Cl.O=C(CCCCN1CCOCC1)Nc1ccc(-c2cccnc2)cc1` [Reference Example 6, 5-(4-Morpholinyl)-N-(4-(3-pyridyl)phenyl)pentanamide hydrochloride], the inhibition at 1 mg/kg in experiment [2] (setting [3]) was 32%. Also, the inhibition at 3 mg/kg in experiment [2] (setting [4]) turned out to be 52%. Besides, in experiment [2] (setting [5]), the inhibition at 10 mg/kg came out at 104%. For the same compound, the “Number … (means ± standard error)” value in experiment [2] (setting [6]) amounted to 94 ± 15; in experiment [2] (setting [7]) it was 78 ± 10; in experiment [2] (setting [8]), 36 ± 5.
`Cl.Clc1ccc(OC[C@H]2CCN2)cn1` [Reference Example 1, (R)-2-Chloro-5-(2-azetidinylmethoxy)pyridine hydrochloride]: in experiment [2] (setting [11]), the inhibition at 0.1 mg/kg was 107%. The inhibition at 0.3 mg/kg in experiment [2] (setting [12]) is 121%. For the same compound, the “Number … (means ± standard error)” value in experiment [2] (setting [13]) is 21 ± 8; in experiment [2] (setting [10]), 6 ± 2.
Take `Cl.O=C(N[C@H]1CN2CCC1CC2)c1ccc2c(c1)OCCO2` [Reference Example 10, N-(1-Azabicyclo[2.2.2]oct-3(R)-yl)-2,3-dihydro-1,4-benzodioxin-6-carboxamide hydrochloride]: in experiment [2] (setting [9]), the inhibition at 0.1 mg/kg stood at 3%, the inhibition at 0.3 mg/kg turned out to be 17% and the inhibition at 1 mg/kg stood at 58%. Besides, the “Number … (means ± standard error)” value in experiment [2] (setting [13]) is 131 ± 18. Besides, the “Number … (means ± standard error)” value in experiment [2] (setting [10]) was 115 ± 19. Further, in experiment [2] (setting [6]), the “Number … (means ± standard error)” value is reported as 69 ± 10.
Consider `COc1ccc2c(c1)c(CC(=O)O)c(C)n2C(=O)c1ccc(Cl)cc1` [indomethacin], for which the “Inhibition of substance P-induced scratching behavior in mice (in words)” value in experiment [1] was “not inhibited”.
As to `O=C(N[C@@H]1C2CCN(CC2)[C@H]1Cc1cccnc1)c1cc2ccccc2o1` [Reference Example 2, N-(2(S)-(Pyridin-3-ylmethyl)-1-azabicyclo[2.2.2]oct-3(R)-yl)-1-benzofuran-2-carboxamide], in experiment [2] (setting [3]), the inhibition at 1 mg/kg came out at 71%. In addition, in experiment [2] (setting [4]), the inhibition at 3 mg/kg was found to be 38%. The inhibition at 10 mg/kg in experiment [2] (setting [5]) turned out to be 62%. The results for the “Number … (means ± standard error)” value in experiment [2] (setting [6]), in experiment [2] (setting [7]) and in experiment [2] (setting [8]) were 67 ± 10, 97 ± 14 and 75 ± 8, respectively.
For the compound `O=C(O)Cc1ccccc1Nc1c(Cl)cccc1Cl` [diclofenac], in experiment [1], the “Inhibition of substance P-induced scratching behavior in mice (in words)” value was “not inhibited”.
Consider `O=C(N[C@H]1CN2CCC1CC2)c1cc2ccoc2cn1` [Reference Example 9, N-(1-Azabicyclo[2.2.2]oct-3(R)-yl)furo[2,3-c]pyridine-5-carboxamide dihydrochloride], for which, in experiment [2] (setting [11]), the inhibition at 0.1 mg/kg came to 10%. Further, the inhibition at 0.3 mg/kg in experiment [2] (setting [12]) was 43%. In addition, in experiment [2] (setting [3]), the inhibition at 1 mg/kg stood at 70%. Besides, the “Number … (means ± standard error)” value in experiment [2] (setting [13]) is given as 109 ± 21; in experiment [2] (setting [10]), 76 ± 18; in experiment [2] (setting [6]) it was 50 ± 10.
As for `Cl.O=C(Oc1ccc(Br)cc1)N1CCN2CCC1CC2` [Reference Example 4, 1,4-Diazabicyclo[3.2.2]nonane-4-carboxylic acid 4-bromophenyl ester hydrochloride], in experiment [2] (setting [9]), the inhibition at 1 mg/kg was 32%, the inhibition at 3 mg/kg came to 63% and the inhibition at 10 mg/kg came to 80%. The “Number … (means ± standard error)” value in experiment [2] (setting [6]) was determined as 89 ± 12. Moreover, in experiment [2] (setting [7]), the “Number … (means ± standard error)” value was determined as 59 ± 14. For the same compound, in experiment [2] (setting [8]), the “Number … (means ± standard error)” value amounted to 42 ± 6.
Consider `C[C@H](OC(=O)N[C@@H]1CN2CCC1CC2)c1ccccc1F` [Reference Example 8, (S)-1-(2-fluorophenyl)ethyl(S)-quinuclidin-3-ylcarbamate], for which, in experiment [2] (setting [14]), the inhibition at 10 mg/kg was determined as 41% and the inhibition at 30 mg/kg was determined as 49%. In addition, in experiment [2] (setting [15]), the “Number … (means ± standard error)” value is 92 ± 17. Besides, the “Number … (means ± standard error)” value in experiment [2] (p.o., 30 mg/kg, substance P 250 nmol/site) was found to be 83 ± 19.
Consider `Cl.O=C(N[C@H]1CN2CCC1CC2)c1cc2cccc(Cl)c2s1` [Reference Example 3, (R)-7-Chloro-N-(quinuclidin-3-yl)benzo[b]thiophene-2-carboxamide hydrochloride], for which, in experiment [2] (Mus musculus, po, 1 mg/kg, substance P 250 nmol/site, read-out: Inhibition rate), the inhibition at 1 mg/kg was determined as 32%. In addition, the inhibition at 3 mg/kg in experiment [2] (Mus musculus, po, 3 mg/kg, substance P 250 nmol/site, read-out: Inhibition rate) came out at 51%. In experiment [2] (Mus musculus, po, 10 mg/kg, substance P 250 nmol/site, read-out: Inhibition rate), the inhibition at 10 mg/kg came out at 79%. Moreover, the “Number … (means ± standard error)” value in experiment [2] (p.o., 1 mg/kg, substance P 250 nmol/site) came out at 71 ± 14; in experiment [2] (p.o., 3 mg/kg, substance P 250 nmol/site), 57 ± 13; in experiment [2] (setting [15]), 36 ± 8.
For the compound `CN1C[C@@H]2CN(c3ccc(-c4ccccc4)nn3)C[C@@H]2C1` [Reference Example 7, cis-2-methyl-5-(6-phenylpyridazin-3-yl)perhydropyrrolo[3,4-c]pyrrole fumarate], the inhibition at 0.3 mg/kg in experiment [2] (setting [9]) worked out at 25%. Besides, the inhibition at 1 mg/kg in experiment [2] (setting [9]) stood at 79%. For the same compound, the inhibition at 3 mg/kg in experiment [2] (setting [9]) stood at 66%. Moreover, the “Number … (means ± standard error)” value in experiment [2] (setting [10]) stood at 101 ± 20; in experiment [2] (setting [6]), 37 ± 8; in experiment [2] (setting [7]) it was 52 ± 9.
